From ChEMBL document CHEMBL1151757, “Synthesis, radiosynthesis, and biological evaluation of fluorine-18-labeled 2beta-carbo(fluoroalkoxy)-3beta-(3'-((Z)-2-haloethenyl)phenyl)nortropanes: candidate radioligands for in vivo imaging of the serotonin transporter with positron emission tomography” (J Med Chem, 2008)

How the values were obtained:
[1] = test system: Thalamus; experiment: Drug uptake in anesthetized cynomolgus monkey brain thalamus after 22.5 mins postinjection; format: ADME, organism-based, Macaca fascicularis; parameters: unit not given here; settings: in vivo, 0.375 h
[2] = test system: Caudate; experiment: Drug uptake in anesthetized cynomolgus monkey brain caudate after 65 mins postinjection; format: ADME, organism-based, Macaca fascicularis, Caudate nucleus; settings: in vivo
[3] = test system: Midbrain; experiment: Drug uptake in anesthetized cynomolgus monkey brain midbrain after 12.5 mins postinjection; format: ADME, organism-based, Macaca fascicularis; parameters: unit not given here; settings: in vivo
[4] = Ratio of drug uptake in midbrain to cerebellum in anesthetized cynomolgus monkey after 135 mins postinjection; format: ADME, organism-based, Macaca fascicularis; settings: in vivo, 2.25 h
[5] = test system: Medulla; experiment: Drug uptake in anesthetized cynomolgus monkey brain medulla after 0.5 mins postinjection; format: ADME, organism-based, Macaca fascicularis; settings: in vivo
[6] = test system: Midbrain; experiment: Drug uptake in anesthetized cynomolgus monkey brain midbrain after 55 mins postinjection; format: ADME, organism-based, Macaca fascicularis; parameters: unit not given here; settings: in vivo
[7] = Drug uptake in anesthetized cynomolgus monkey brain frontal lobe after 35 mins postinjection; format: ADME, organism-based, Macaca fascicularis; settings: in vivo
[8] = test system: Putamen; experiment: Drug uptake in anesthetized cynomolgus monkey brain putamen after 175 mins postinjection; format: ADME, organism-based, Macaca fascicularis; settings: in vivo
[9] = test system: Midbrain; experiment: Drug uptake in anesthetized cynomolgus monkey brain midbrain after 125 mins postinjection; format: ADME, organism-based, Macaca fascicularis; parameters: unit not given here; settings: in vivo
[10] = test system: Thalamus; experiment: Drug uptake in anesthetized cynomolgus monkey brain thalamus after 65 mins postinjection; format: ADME, organism-based, Macaca fascicularis; parameters: unit not given here; settings: in vivo
[11] = test system: Putamen; experiment: Drug uptake in anesthetized cynomolgus monkey brain putamen after 105 mins postinjection; format: ADME, organism-based, Macaca fascicularis; parameters: unit not given here; settings: in vivo, 1.75 h
[12] = Ratio of drug uptake in medulla to cerebellum in anesthetized cynomolgus monkey after 65 mins postinjection; format: ADME, organism-based, Macaca fascicularis; settings: in vivo
[13] = test system: Medulla; experiment: Drug uptake in anesthetized cynomolgus monkey brain medulla after 18.5 mins postinjection; format: ADME, organism-based, Macaca fascicularis; settings: in vivo
[14] = Ratio of drug uptake in caudate to cerebellum in anesthetized cynomolgus monkey after 65 mins postinjection; format: ADME, organism-based, Macaca fascicularis; settings: in vivo
[15] = Ratio of drug uptake in pons to cerebellum in anesthetized cynomolgus monkey after 85 mins postinjection; format: ADME, organism-based, Macaca fascicularis; settings: in vivo
[16] = test system: Midbrain; experiment: Drug uptake in anesthetized cynomolgus monkey brain midbrain after 165 mins postinjection; format: ADME, organism-based, Macaca fascicularis; settings: in vivo, 2.75 h
[17] = Ratio of drug uptake in occipital lobe to cerebellum in anesthetized cynomolgus monkey after 0.5 mins postinjection; format: ADME, organism-based, Macaca fascicularis; settings: in vivo
[18] = test system: Medulla; experiment: Drug uptake in anesthetized cynomolgus monkey brain medulla after 27.5 mins postinjection; format: ADME, organism-based, Macaca fascicularis; settings: in vivo
[19] = Ratio of drug uptake in occipital lobe to cerebellum in anesthetized cynomolgus monkey after 235 mins postinjection; format: ADME, organism-based, Macaca fascicularis; settings: in vivo
[20] = test system: Midbrain; experiment: Drug uptake in anesthetized cynomolgus monkey brain midbrain after 27.5 mins postinjection; format: ADME, organism-based, Macaca fascicularis; parameters: unit not given here; settings: in vivo
[21] = test system: Midbrain; experiment: Drug uptake in anesthetized cynomolgus monkey brain midbrain after 35 mins postinjection; format: ADME, organism-based, Macaca fascicularis; parameters: unit not given here; settings: in vivo
[22] = test system: Pons; experiment: Drug uptake in anesthetized cynomolgus monkey brain pons after 3.5 mins postinjection; format: ADME, organism-based, Macaca fascicularis; settings: in vivo
[23] = test system: Putamen; experiment: Drug uptake in anesthetized cynomolgus monkey brain putamen after 155 mins postinjection; format: ADME, organism-based, Macaca fascicularis; settings: in vivo
[24] = Ratio of drug uptake in midbrain to cerebellum in anesthetized cynomolgus monkey after 215 mins postinjection; format: ADME, organism-based, Macaca fascicularis; settings: in vivo
[25] = Ratio of drug uptake in occipital lobe to cerebellum in anesthetized cynomolgus monkey after 105 mins postinjection; format: ADME, organism-based, Macaca fascicularis; settings: in vivo, 1.75 h
[26] = test system: Caudate; experiment: Drug uptake in anesthetized cynomolgus monkey brain caudate after 3.5 mins postinjection; format: ADME, organism-based, Macaca fascicularis, Caudate nucleus; settings: in vivo
[27] = test system: Midbrain; experiment: Drug uptake in anesthetized cynomolgus monkey brain midbrain after 0.5 mins postinjection; format: ADME, organism-based, Macaca fascicularis; parameters: unit not given here; settings: in vivo
[28] = Drug uptake in anesthetized cynomolgus monkey brain frontal lobe after 2.5 mins postinjection; format: ADME, organism-based, Macaca fascicularis; settings: in vivo
[29] = Drug uptake in anesthetized cynomolgus monkey brain frontal lobe after 45 mins postinjection; format: ADME, organism-based, Macaca fascicularis; settings: in vivo, 0.75 h
[30] = test system: Midbrain; experiment: Drug uptake in anesthetized cynomolgus monkey brain midbrain after 4.5 mins postinjection; format: ADME, organism-based, Macaca fascicularis; parameters: unit not given here; settings: in vivo, 0.075 h
[31] = test system: Thalamus; experiment: Drug uptake in anesthetized cynomolgus monkey brain thalamus after 145 mins postinjection; format: ADME, organism-based, Macaca fascicularis; parameters: unit not given here; settings: in vivo
[32] = test system: Thalamus; experiment: Drug uptake in anesthetized cynomolgus monkey brain thalamus after 0.5 mins postinjection; format: ADME, organism-based, Macaca fascicularis; settings: in vivo
[33] = test system: Caudate; experiment: Drug uptake in anesthetized cynomolgus monkey brain caudate after 0.5 mins postinjection; format: ADME, organism-based, Macaca fascicularis, Caudate nucleus; settings: in vivo
[34] = test system: Putamen; experiment: Drug uptake in anesthetized cynomolgus monkey brain putamen after 215 mins postinjection; format: ADME, organism-based, Macaca fascicularis; settings: in vivo
[35] = Ratio of drug uptake in putamen to cerebellum in anesthetized cynomolgus monkey after 75 mins postinjection; format: ADME, organism-based, Macaca fascicularis; settings: in vivo, 1.25 h
[36] = test system: Caudate; experiment: Drug uptake in anesthetized cynomolgus monkey brain caudate after 105 mins postinjection; format: ADME, organism-based, Macaca fascicularis, Caudate nucleus; settings: in vivo, 1.75 h
[37] = test system: Pons; experiment: Drug uptake in anesthetized cynomolgus monkey brain pons after 27.5 mins postinjection; format: ADME, organism-based, Macaca fascicularis; settings: in vivo
[38] = test system: Midbrain; experiment: Drug uptake in anesthetized cynomolgus monkey brain midbrain after 235 mins postinjection; format: ADME, organism-based, Macaca fascicularis; settings: in vivo
[39] = Ratio of drug uptake in occipital lobe to cerebellum in anesthetized cynomolgus monkey after 115 mins postinjection; format: ADME, organism-based, Macaca fascicularis; settings: in vivo
[40] = test system: Midbrain; experiment: Drug uptake in anesthetized cynomolgus monkey brain midbrain after 9.5 mins postinjection; format: ADME, organism-based, Macaca fascicularis; parameters: unit not given here; settings: in vivo
[41] = Ratio of drug uptake in putamen to cerebellum in anesthetized cynomolgus monkey after 155 mins postinjection; format: ADME, organism-based, Macaca fascicularis; settings: in vivo
[42] = test system: Pons; experiment: Drug uptake in anesthetized cynomolgus monkey brain pons after 95 mins postinjection; format: ADME, organism-based, Macaca fascicularis; settings: in vivo
[43] = test system: Caudate; experiment: Drug uptake in anesthetized cynomolgus monkey brain caudate after 115 mins postinjection; format: ADME, organism-based, Macaca fascicularis, Caudate nucleus; settings: in vivo
[44] = test system: Midbrain; experiment: Drug uptake in anesthetized cynomolgus monkey brain midbrain after 18.5 mins postinjection; format: ADME, organism-based, Macaca fascicularis; parameters: unit not given here; settings: in vivo
[45] = test system: Caudate; experiment: Drug uptake in anesthetized cynomolgus monkey brain caudate after 125 mins postinjection; format: ADME, organism-based, Macaca fascicularis, Caudate nucleus; settings: in vivo
[46] = Ratio of drug uptake in pons to cerebellum in anesthetized cynomolgus monkey after 1.5 mins postinjection; format: ADME, organism-based, Macaca fascicularis; settings: in vivo, 0.025 h
[47] = Ratio of drug uptake in caudate to cerebellum in anesthetized cynomolgus monkey after 55 mins postinjection; format: ADME, organism-based, Macaca fascicularis; settings: in vivo
[48] = Drug uptake in anesthetized cynomolgus monkey brain occipital lobe after 3.5 mins postinjection; format: ADME, organism-based, Macaca fascicularis; settings: in vivo
[49] = Ratio of drug uptake in pons to cerebellum in anesthetized cynomolgus monkey after 35 mins postinjection; format: ADME, organism-based, Macaca fascicularis; settings: in vivo
[50] = Drug uptake in anesthetized cynomolgus monkey brain frontal lobe after 75 mins postinjection; format: ADME, organism-based, Macaca fascicularis; settings: in vivo, 1.25 h
[51] = Drug uptake in anesthetized cynomolgus monkey brain cerebellum after 4.5 mins postinjection; format: ADME, organism-based, Macaca fascicularis; settings: in vivo, 0.075 h
[52] = Drug uptake in anesthetized cynomolgus monkey brain frontal lobe after 6.5 mins postinjection; format: ADME, organism-based, Macaca fascicularis; settings: in vivo
[53] = Drug uptake in anesthetized cynomolgus monkey brain frontal lobe after 3.5 mins postinjection; format: ADME, organism-based, Macaca fascicularis; settings: in vivo
[54] = Drug uptake in anesthetized cynomolgus monkey brain frontal lobe after 175 mins postinjection; format: ADME, organism-based, Macaca fascicularis; settings: in vivo
[55] = Drug uptake in anesthetized cynomolgus monkey brain occipital lobe after 2.5 mins postinjection; format: ADME, organism-based, Macaca fascicularis; settings: in vivo
[56] = Drug uptake in anesthetized cynomolgus monkey brain cerebellum after 15.5 mins postinjection; format: ADME, organism-based, Macaca fascicularis; settings: in vivo
[57] = Ratio of drug uptake in occipital lobe to cerebellum in anesthetized cynomolgus monkey after 135 mins postinjection; format: ADME, organism-based, Macaca fascicularis; settings: in vivo, 2.25 h
[58] = Ratio of drug uptake in caudate to cerebellum in anesthetized cynomolgus monkey after 225 mins postinjection; format: ADME, organism-based, Macaca fascicularis; settings: in vivo, 3.75 h
[59] = Ratio of drug uptake in caudate to cerebellum in anesthetized cynomolgus monkey after 155 mins postinjection; format: ADME, organism-based, Macaca fascicularis; settings: in vivo
[60] = Ratio of drug uptake in pons to cerebellum in anesthetized cynomolgus monkey after 125 mins postinjection; format: ADME, organism-based, Macaca fascicularis; settings: in vivo
[61] = Ratio of drug uptake in frontal lobe to cerebellum in anesthetized cynomolgus monkey after 125 mins postinjection; format: ADME, organism-based, Macaca fascicularis; settings: in vivo

O=C(OCC[18F])C1C2CCC(CC1c1cccc(/C=C\I)c1)N2 (stereo unspecified)
Drug uptake [1]: 3.88
Drug uptake [2]: 3.67
Drug uptake [3]: 3.95
Ratio [4]: 2
Drug uptake [5]: 0
Drug uptake [6]: 4.91
Drug uptake [7]: 2.89
Drug uptake [8]: 2.93
Drug uptake [9]: 4.08
Drug uptake [10]: 4.26
Drug uptake [11]: 3.88
Ratio [12]: 1.2
Drug uptake [13]: 3.61
Ratio [14]: 1.1
Ratio [15]: 1.1
Drug uptake [16]: 3.53
Ratio [17]: 0.8
Drug uptake [18]: 3.97
Ratio [19]: 0.9
Drug uptake [20]: 4.71
Drug uptake [21]: 4.85
Drug uptake [22]: 0.77
Drug uptake [23]: 3.13
Ratio [24]: 2.2
Ratio [25]: 1
Drug uptake [26]: 0.79
Drug uptake [27]: 0
Drug uptake [28]: 0.28
Drug uptake [29]: 2.95
Drug uptake [30]: 1.87
Drug uptake [31]: 3.16
Drug uptake [32]: 0
Drug uptake [33]: 0
Drug uptake [34]: 2.53
Ratio [35]: 1.4
Drug uptake [36]: 3.33
Drug uptake [37]: 3.21
Drug uptake [38]: 2.94
Ratio [39]: 0.9
Drug uptake [40]: 3.52
Ratio [41]: 1.8
Drug uptake [42]: 3.05
Drug uptake [43]: 3.17
Drug uptake [44]: 4.37
Drug uptake [45]: 3

O=C(OCCC[18F])C1C2CCC(CC1c1cccc(/C=C\Br)c1)N2 (stereo unspecified)
Drug uptake [1]: 5.02
Drug uptake [2]: 5.22
Drug uptake [3]: 5.24
Ratio [4]: 1.9
Ratio [46]: 0.8
Drug uptake [5]: 0.02
Drug uptake [6]: 6.1
Drug uptake [7]: 3.74
Ratio [47]: 1.1
Drug uptake [8]: 4.1
Drug uptake [48]: 1.51
Drug uptake [9]: 5.5
Ratio [49]: 0.9
Drug uptake [10]: 5.39
Drug uptake [50]: 3.49
Drug uptake [11]: 5.21
Ratio [12]: 1.3
Drug uptake [13]: 5.87
Ratio [14]: 1.2
Ratio [15]: 1.2
Drug uptake [16]: 5.06
Ratio [17]: 1
Drug uptake [51]: 3.51
Drug uptake [18]: 6.12
Drug uptake [52]: 2.95
Drug uptake [53]: 1.47
Ratio [19]: 1.4
Drug uptake [54]: 2.51
Drug uptake [55]: 1.03
Drug uptake [20]: 6.06
Drug uptake [21]: 6.14
Drug uptake [22]: 1.87
Drug uptake [23]: 4.38
Ratio [24]: 2.2
Ratio [25]: 1.1
Drug uptake [26]: 1.7
Drug uptake [56]: 5.62
Ratio [57]: 1.2
Drug uptake [27]: 0.01
Ratio [58]: 1.7
Drug uptake [28]: 0.79
Drug uptake [29]: 3.72
Drug uptake [30]: 3.08
Drug uptake [31]: 4.62
Ratio [59]: 1.6
Drug uptake [32]: 0.01
Drug uptake [33]: 0.01
Drug uptake [34]: 3.51
Ratio [60]: 1.4
Ratio [35]: 1.4
Drug uptake [36]: 4.9
Drug uptake [37]: 5.03
Drug uptake [38]: 4.33
Ratio [39]: 1.1
Drug uptake [40]: 5.04
Ratio [41]: 1.7
Ratio [61]: 0.9
Drug uptake [42]: 4.68
Drug uptake [43]: 4.71
Drug uptake [44]: 5.49
Drug uptake [45]: 4.63
